Data from patent US20240382435A1, “NON-CERULOPLASMIN BOUND COPPER LEVEL MONITORING” (ORPHALAN S.A., priority 2021, published 2024).

Columns and labels:
[1] = tested on: patients with Wilson's Disease; test: Baseline ALT, clinical study of Example 3
Source text: For change from baseline in laboratory measurements, “baseline” was defined as the last non-missing value during the Penicillamine Baseline Period, including unscheduled values.

[2] = tested on: patients with Wilson's Disease; test: 24-hour urinary copper excretion (UCE), clinical study of Example 3; type: in vivo, human; conditions: for 24-hour UCE value, mean / 24-hour UCE value, median / 24-hour UCE change from baseline, mean / 24-hour UCE change from baseline, median: ITT
Method: The number and the proportion of patients with a serum NCC value that matched the threshold (eg, serum NCC≤50 μg/L) were presented along with the 95% confidence interval of the proportion by visit and treatment arm. The proportions in the 2 arms were compared using Fisher's exact test. The same approach was applied on 24-hour UCE.

[3] = tested on: patients with Wilson's Disease; test: Clinical Global Impression of Change (CGIC) rating scale, clinical study of Example 3; type: in vivo, human; set-up: key: 7-point ordinal CGIC scale, 4 = no change; conditions: 7-point scale, ITT
Source text: The CGIC rating scale, a 7-point ordinal score, was summarized by visit and treatment arm, and compared between arms using a stratified Cochran-Mantel-Haenszel test. The UWDRS, a continuous measure, was summarized by visit and treatment arm with descriptive statistics for absolute values and the changes from baseline.

[4] = tested on: patients with Wilson's Disease; test: Serum NCC by copper speciation assay, randomized open-label clinical study (Example 3); type: in vivo, human; conditions: for serum NCC levels, comparison between arms: copper speciation assay, Table 4
Method: 1.95 mL of rhodium internal standard solution containing 1% TMAH/1% EDTA was combined with 50 μL of human serum in a 15 mL polypropylene tube, capped and rotary mixed for at least 30 minutes. The processed sample was then analysed by ICP-MS on an Agilent 7900x inductively coupled plasma mass spectrometer.
The samples were defrosted and equilibrated to room temperature prior to use, and vortex mixed for approximately 5 seconds. 80 μL of 50 mM Tris-HCl (pH 7.4) buffer solution was combined with 20 μL of the clinical sample, blank or reference standard in a 0.5 mL Eppendorf tube (protein low bind). The diluted sample (100 μL) was transferred to a 0.3 mL polypropylene LC vial and sealed with a screw cap. An aliquot (50 μL) of each processed sample was then analysed by LC-ICP-MS on an Agilent 8900x inductively coupled plasma mass spectrometer.
Speciation analysis of Cu-containing species in the serum samples was performed by an anion exchange high performance liquid chromatography (AE HPLC) column (GE Healthcare MonoQ 5/50 GL, stationary phase (10 μm; 5×50 mm)) with an ammonium acetate gradient (0-250 mM) for 20 min. A flow rate of 1.0 mL/min was used. The chromatographic separation was performed at 25° C. Detection of the eluting Cu species was achieved using a collision/reaction cell Agilent Technologies 8900x ICP-MS spectrometer. The isotopes 63Cu and 65Cu were monitored in time resolved mode analysis using an integration time of 0.3 sec. 63Cu is the most abundant isotope and therefore this isotope was used to quantify copper by LC-ICP-MS.
Efficacy was assessed and treatments were monitored primarily using total copper analysis and a copper speciation assay as outlined in Examples 1 and 2 to determine serum NCC levels.
Eligible patients were clinically stable with their standard of-care D penicillamine chelation therapy for at least 1 year. These patients entered a 12-Week Penicillamine Baseline Period (from study visits on Day 1 to Week 12). During this time, all patients continued their current D penicillamine regimen under study conditions. At the end of the Penicillamine Baseline Period, patients who fulfilled the protocol definition of being adequately controlled and tolerating D penicillamine were randomized in a 1:1 ratio to receive either TETA 4HCl or to continue to receive D penicillamine during a 24-Week Post-Randomization Period (from study visits Week 12 to Week 36).
The primary efficacy endpoint was the serum NCC concentration (in μg/L) at Week 36. Serum NCC concentrations were determined using a copper speciation serum NCC assay using the methodology outlined in Examples 1 and 2. The primary efficacy analysis utilized the serum NCC values from all study visits that were analyzed using a restricted maximum likelihood based general linear model for correlated data. The correlation due to repeated measures was modelled by specifying the variance covariance matrix.

[5] = Day 1, 12-Week Penicillamine Baseline Period (all patients on D-penicillamine), by arm
[6] = Week 4, Penicillamine Baseline Period (all patients on D-penicillamine)
[7] = Week 12 (randomization), end of Penicillamine Baseline Period
[8] = Week 16, 24-Week Post-Baseline Period
[9] = Week 24, 24-Week Post-Baseline Period
[10] = Week 36, 24-Week Post-Baseline Period
[11] = Week 4, Penicillamine Baseline Period (all patients on D-penicillamine), 4 = no change
[12] = Week 12, Penicillamine Baseline Period
[13] = Week 16, Post-Randomization Period
[14] = Week 24, Post-Randomization Period
[15] = Week 36, Post-Randomization Period
[16] = Day 1, 12-Week Penicillamine Baseline Period (all patients on D-penicillamine), ITT population, by arm
[17] = Week 4, Penicillamine Baseline Period (all patients on D-penicillamine), ITT
[18] = Week 8, Penicillamine Baseline Period (all patients on D-penicillamine), ITT
[19] = Week 12 (randomization), end of Penicillamine Baseline Period, ITT
[20] = Week 16, 24-Week Post-Randomization Period, ITT
[21] = Week 16, Post-Randomization Period, ITT
[22] = Week 20, Post-Randomization Period, ITT
[23] = Week 24, Post-Randomization Period, ITT
[24] = Week 28, Post-Randomization Period, ITT
[25] = Week 32, Post-Randomization Period, ITT
[26] = Week 36 (primary efficacy endpoint), Post-Randomization Period, ITT
[27] = Week 36, Post-Randomization Period, ITT

## CC(C)(S)[C@@H](N)C(=O)O [D-Penicillamine, D-penicillamine]
[1]; human, in vivo
  ALT, mean baseline: 35.6 U/L
[2]; [5]
  24-hour UCE value, mean: 568.3 μg/24 hours
  24-hour UCE value, median: 478.8 μg/24 hours
[2]; [6]
  24-hour UCE value, mean: 551.5 μg/24 hours
  24-hour UCE value, median: 594.6 μg/24 hours
[2]; [7]
  24-hour UCE value, mean: 539.1 μg/24 hours
  24-hour UCE value, median: 496.0 μg/24 hours
[2]; [8]
  24-hour UCE change from baseline, mean: −26.8 μg/24 hours
  24-hour UCE change from baseline, median: −60.3 μg/24 hours
  24-hour UCE value, mean: 512.1 μg/24 hours
  24-hour UCE value, median: 501.4 μg/24 hours
[2]; [9]
  24-hour UCE change from baseline, mean: 37.9 μg/24 hours
  24-hour UCE change from baseline, median: 23.4 μg/24 hours
  24-hour UCE value, mean: 546.8 μg/24 hours
  24-hour UCE value, median: 495.3 μg/24 hours
[2]; [10]
  24-hour UCE change from baseline, mean: 4.9 μg/24 hours
  24-hour UCE change from baseline, median: −4.7 μg/24 hours
  24-hour UCE value, mean: 519.7 μg/24 hours
  24-hour UCE value, median: 536.9 μg/24 hours
[2]; all time points analyzed after randomization, statistically significant differences
  24-hour UCE, comparison between treatment arms: higher levels of copper excretion
[3]; [11]
  Clinical Global Impression of Change Scale, mean: 4.1
[3]; [6]
  Clinical Global Impression of Change Scale, median: 4.0
[3]; [12]
  Clinical Global Impression of Change Scale, mean: 3.9
  Clinical Global Impression of Change Scale, median: 4.0
[3]; [13]
  Clinical Global Impression of Change Scale, mean: 4.1
  Clinical Global Impression of Change Scale, median: 4.0
[3]; [14]
  Clinical Global Impression of Change Scale, mean: 4.0
  Clinical Global Impression of Change Scale, median: 4.0
[3]; [15]
  Clinical Global Impression of Change Scale, mean: 4.0
  Clinical Global Impression of Change Scale, median: 4.0
[4]; [16]
  serum NCC value, mean: 63.9 µg/L
  serum NCC value, median: 61.0 µg/L
[4]; [17]
  serum NCC value, mean: 59.4 µg/L
  serum NCC value, median: 58.4 µg/L
[4]; [18]
  serum NCC value, mean: 71.9 µg/L
  serum NCC value, median: 69.0 µg/L
[4]; [19]
  serum NCC value, mean: 84.4 µg/L
  serum NCC value, median: 83.0 µg/L
[4]; [20]
  serum NCC value, mean: 82.8 µg/L
[4]; [21]
  serum NCC change from baseline, mean: -2.1 µg/L
  serum NCC change from baseline, median: 0.0 µg/L
  serum NCC value, median: 77.5 µg/L
[4]; [22]
  serum NCC change from baseline, mean: -12.3 µg/L
  serum NCC change from baseline, median: -11.6 µg/L
  serum NCC value, mean: 73.3 µg/L
  serum NCC value, median: 75.5 µg/L
[4]; [23]
  serum NCC change from baseline, mean: -16.9 µg/L
  serum NCC change from baseline, median: -20.0 µg/L
  serum NCC value, mean: 66.3 µg/L
  serum NCC value, median: 64.0 µg/L
[4]; [24]
  serum NCC change from baseline, mean: -10.6 µg/L
  serum NCC change from baseline, median: -17.5 µg/L
  serum NCC value, mean: 73.1 µg/L
  serum NCC value, median: 65.1 µg/L
[4]; [25]
  serum NCC change from baseline, mean: -19.1 µg/L
  serum NCC change from baseline, median: -21.7 µg/L
  serum NCC value, mean: 64.6 µg/L
  serum NCC value, median: 62.0 µg/L
[4]; [26]
  serum NCC value, mean: 53.4 µg/L
[4]; [27]
  serum NCC change from baseline, mean: -29.7 µg/L
  serum NCC change from baseline, median: -34.0 µg/L
  serum NCC value, median: 51.0 µg/L
[4]
  serum NCC levels, comparison between arms: very similar

## Cl.Cl.Cl.Cl.NCCNCCNCCN [TETA 4HCl, trientine tetrahydrochloride]
[1]; baseline (Penicillamine Baseline Period), by treatment arm
  ALT, mean baseline: 34.7 U/L
[2]; [5]
  24-hour UCE value, mean: 550.8 μg/24 hours
  24-hour UCE value, median: 546.6 μg/24 hours
[2]; [6]
  24-hour UCE value, mean: 545.4 μg/24 hours
  24-hour UCE value, median: 436.1 μg/24 hours
[2]; [7]
  24-hour UCE value, mean: 535.1 μg/24 hours
  24-hour UCE value, median: 590.4 μg/24 hours
[2]; [8]
  24-hour UCE change from baseline, mean: −223 μg/24 hours
  24-hour UCE change from baseline, median: −221 μg/24 hours
  24-hour UCE value, mean: 316.4 μg/24 hours
  24-hour UCE value, median: 265.6 μg/24 hours
[2]; [9]
  24-hour UCE change from baseline, mean: −247 μg/24 hours
  24-hour UCE change from baseline, median: −199 μg/24 hours
  24-hour UCE value, mean: 295.7 μg/24 hours
  24-hour UCE value, median: 257.8 μg/24 hours
[2]; [10]
  24-hour UCE change from baseline, mean: −258 μg/24 hours
  24-hour UCE change from baseline, median: −231 μg/24 hours
  24-hour UCE value, mean: 289.4 μg/24 hours
  24-hour UCE value, median: 234.8 μg/24 hours
[3]; [11]
  Clinical Global Impression of Change Scale, mean: 4.0
[3]; [6]
  Clinical Global Impression of Change Scale, median: 4.0
[3]; [12]
  Clinical Global Impression of Change Scale, mean: 4.0
  Clinical Global Impression of Change Scale, median: 4.0
[3]; [13]
  Clinical Global Impression of Change Scale, mean: 4
  Clinical Global Impression of Change Scale, median: 4.0
[3]; [14]
  Clinical Global Impression of Change Scale, mean: 4.0
  Clinical Global Impression of Change Scale, median: 4.0
[3]; [15]
  Clinical Global Impression of Change Scale, mean: 3.9
  Clinical Global Impression of Change Scale, median: 4.0
[4]; [16]
  serum NCC value, mean: 60.7 µg/L
  serum NCC value, median: 58.2 µg/L
[4]; [17]
  serum NCC value, mean: 57.6 µg/L
  serum NCC value, median: 58.5 µg/L
[4]; [18]
  serum NCC value, mean: 70.0 µg/L
  serum NCC value, median: 61.5 µg/L
[4]; [19]
  serum NCC value, mean: 68.5 µg/L
  serum NCC value, median: 61.1 µg/L
[4]; [20]
  serum NCC value, mean: 78.0 µg/L
[4]; [21]
  serum NCC change from baseline, mean: 9.4 µg/L
  serum NCC change from baseline, median: 9.2 µg/L
  serum NCC value, median: 69.6 µg/L
[4]; [22]
  serum NCC change from baseline, mean: 8.2 µg/L
  serum NCC change from baseline, median: 4.1 µg/L
  serum NCC value, mean: 76.8 µg/L
  serum NCC value, median: 60.8 µg/L
[4]; [23]
  serum NCC change from baseline, mean: -0.4 µg/L
  serum NCC change from baseline, median: 3.0 µg/L
  serum NCC value, mean: 60.3 µg/L
  serum NCC value, median: 57.0 µg/L
[4]; [24]
  serum NCC change from baseline, mean: -0.8 µg/L
  serum NCC change from baseline, median: 0.0 µg/L
  serum NCC value, mean: 69.5 µg/L
  serum NCC value, median: 62.4 µg/L
[4]; [25]
  serum NCC change from baseline, mean: -4.6 µg/L
  serum NCC change from baseline, median: 0.7 µg/L
  serum NCC value, mean: 64.0 µg/L
  serum NCC value, median: 60.0 µg/L
[4]; [26]
  serum NCC value, mean: 57.6 µg/L
[4]; [27]
  serum NCC change from baseline, mean: -11.0 µg/L
  serum NCC change from baseline, median: -6.9 µg/L
  serum NCC value, median: 51.1 µg/L
[4]
  serum NCC levels, comparison between arms: very similar
